One block for each molecule: values may come before it.
Experiments:
Assay type in all cases: physicochemical
[1] = Gelation test: gelator effectiveness (Geff) and minimal gelation concentration in solvents and solvent mixtures; parameters: key: sol.: soluble; ins.: insoluble; cr.: crystallization; [A]: gel/sol mixture; details: max. volume immobilized by 10 mg gelator, Table 3
Method: (§1) Gelation observed for selected gelator–solvent pairs is expressed by gelator effectiveness (Geff, mL) corresponding to the maximal volume of solvent that could be immobilized by 10 mg of the gelator (Table 1). […] However, 3a and 5a also gelled small to moderate volumes of EtOH and rac-2-octanol, whilst Leu incorporating 1a formed gels with the more lipophilic solvents, decalin and tetralin. […] Apparently, the retro-peptides incorporating aliphatic and aromatic amino acids are less versatile gelators compared to retro-peptides containing […] amino acid fragments. The latter points to the importance of intermolecular lipophilic interactions for the stabilization of gel assemblies being stronger in the case of identical amino acids either lipophilic or aromatic, and weaker for mixed aromatic-lipophilic amino acid fragments present in the gelator molecule.

[2] = as above; parameters: key: sol.: soluble; ins.: insoluble; cr.: crystalline; [A]: gel/sol mixture; details: max. volume immobilized by 10 mg gelator, Table 3
Method: as §1

[3] = as above
[4] = as above; parameters: key to Gelator effectiveness (Geff): sol.: soluble; ins.: insoluble; cr.: crystallization; [A]: gel/sol mixture; details: for Gelation effectiveness (Geff): Table 3
Method: as §1

[5] = Concentration-dependent 1H NMR of toluene-d8 gel samples (self-assembly saturation point)
Description: In the first case the oxalamide NH and Leu-NH protons were downfield shifted by 1.6 and 1.8 ppm, respectively, for a gelator concentration increase from 0.001–0.1 mol dm^−3. […] The monitored protons of (S,S)-1b are more strongly downfield shifted than the corresponding protons of (S,R)-1b for the same concentration range. Similar trends of NH and C*H concentration induced shifts are observed for (S,S)-1b and its racemate (S,S)-1b/(R,R)-1b toluene-d8 gels (Figure 6). Again the magnitudes of the NH and C*H concentration induced shifts are higher for the (S,S)-1b than for the racemate gel. […]
If the racemate were organized in the conglomerate as separate enantiomeric (S,S)-1b and (R,R)-1b assemblies, the magnitudes of the concentration induced shifts should be similar to those measured the for (S,S)-1b assemblies. […]
The discontinuous concentration induced shift curves obtained for (S,R)-1b diasteroisomer may indicate the presence of different assemblies at lower and higher gelator concentrations. It appears that the first saturation point is reached at a concentration around 0.03 mol dm^-3 and the second at 0.12 mol dm^−3, the latter corresponding nicely to the experimentally determined MGC of 0.116 mol dm^−3. […]

[6] = max. volume immobilized by 10 mg gelator, H2O/DMF mixture, given as volume + volume
[7] = max. volume immobilized by 10 mg gelator, H2O/DMSO mixture, given as volume + volume
[8] = max. volume immobilized by 10 mg gelator, tetralin
[9] = max. volume immobilized by 10 mg gelator, CH2Cl2, Table 2
[10] = max. volume immobilized by 10 mg gelator, CH3CN, Table 2
[11] = max. volume immobilized by 10 mg gelator, H2O/DMF mixture, given as volume + volume, Table 2
[12] = max. volume immobilized by 10 mg gelator, H2O/DMSO mixture, given as volume + volume, Table 2
[13] = max. volume immobilized by 10 mg gelator, H2O, Table 2
[14] = max. volume immobilized by 10 mg gelator, THF, Table 2
[15] = max. volume immobilized by 10 mg gelator, decalin, Table 2
[16] = max. volume immobilized by 10 mg gelator, p-xylene, Table 2
[17] = max. volume immobilized by 10 mg gelator, tetralin, Table 2
[18] = max. volume immobilized by 10 mg gelator, toluene, Table 2

Molecule: NC(=O)[C@@H](NC(=O)[C@@H](NC(=O)C(=O)N[C@H](C(=O)N[C@H](C(N)=O)c1ccccc1)c1ccccc1)c1ccccc1)c1ccccc1 [3c, bis(PhgPhgNH2)]
- Gelation effectiveness (Geff) ([1]; CH2Cl2): ins.
- Gelation effectiveness (Geff) ([1]; CH3CN): ins.
- Gelation effectiveness (Geff) ([1]; EtOH): ins.
- Gelation effectiveness (Geff) ([1]; H2O): ins.
- Gelation effectiveness (Geff) ([1]; THF): ins.
- Gelation effectiveness (Geff) ([1]; p-xylene): ins.
- Gelation effectiveness (Geff) ([1]; tetralin): ins.
- Gelation effectiveness (Geff) ([1]; toluene): ins.
- Gelation effectiveness (Geff) ([1]; ±2-octanol): ins.
- Gelation effectiveness (Geff) ([2]; H2O/DMF mixture, given as volume + volume): cr.
- Gelation effectiveness (Geff) ([2]; H2O/DMSO mixture, given as volume + volume): cr.

Molecule: O=C(N[C@H](C(=O)N[C@H](C(=O)O)c1ccccc1)c1ccccc1)C(=O)N[C@H](C(=O)N[C@H](C(=O)O)c1ccccc1)c1ccccc1 [3a, (S,S)-N,N'-Oxalyl-bis(phenylglycyl-phenylglycine)]
- solubility in water [3]: insoluble

Molecule: COC(=O)[C@H](CC(C)C)NC(=O)[C@@H](NC(=O)C(=O)N[C@H](C(=O)N[C@@H](CC(C)C)C(=O)OC)c1ccccc1)c1ccccc1 [4b, (S,S)-N,N'-Oxalyl-bis(phenylglycyl-leucine methyl ester)]
- Gelator effectiveness (Geff) [4, 9]: sol.
- Gelator effectiveness (Geff) [4, 10]: cr
- Gelator effectiveness (Geff) [4, 11]: cr.
- Gelator effectiveness (Geff) [4, 12]: 0.2+0.5 mL
- Gelator effectiveness (Geff) [4, 13]: ins.
- Gelator effectiveness (Geff) [4, 14]: sol.
- Gelator effectiveness (Geff) [4, 15]: 4.8 mL
- Gelator effectiveness (Geff) [4, 16]: 1.1 mL
- Gelator effectiveness (Geff) [4, 17]: 0.9 mL
- Gelator effectiveness (Geff) [4, 18]: 1.25 mL

Molecule: CC(C)C[C@H](NC(=O)[C@H](CC(C)C)NC(=O)C(=O)N[C@@H](CC(C)C)C(=O)N[C@@H](CC(C)C)C(N)=O)C(N)=O [(S,S)-1c, bis(LeuLeuNH2)]
- Gelation effectiveness (Geff) ([4]; max. volume immobilized by 10 mg gelator, CH2Cl2 + DMSO (footnote a), volume + volume): 1.05+0.2^a mL
- Gelation effectiveness (Geff) [4, 6]: 0.45+0.75 mL
- Gelation effectiveness (Geff) [4, 7]: 0.55+1.4 mL
- Gelation effectiveness (Geff) [4, 8]: 7.3 mL
- Gelation effectiveness (Geff) ([4]; max. volume immobilized by 10 mg gelator, toluene + DMSO (footnote a), volume + volume): 1.05+0.2^a mL
- Gelation effectiveness (Geff) ([1]; CH3CN): ins.
- Gelation effectiveness (Geff) ([1]; H2O): ins.
- Gelation effectiveness (Geff) ([1]; THF): ins.
- Gelation effectiveness (Geff) ([1]; p-xylene): ins.
- Gelation effectiveness (Geff) ([1]; ±2-octanol): ins.
- Gelation effectiveness (Geff) ([2]; EtOH): cr.

Molecule: bis(Leu)oxalamide [reference compound]
- Gelator effectiveness (Geff) ([4]; max. volume immobilized by 10 mg gelator, CH2Cl2 + DMSO (footnote a), given as volume + volume, Table 1): 1.5+0.05^a mL
- Gelator effectiveness (Geff) ([4]; max. volume immobilized by 10 mg gelator, CH3CN, Table 1): 0.95 mL
- Gelator effectiveness (Geff) ([4]; max. volume immobilized by 10 mg gelator, EtOH, Table 1): 1.5 mL
- Gelator effectiveness (Geff) ([4]; max. volume immobilized by 10 mg gelator, H2O/DMF mixture, given as volume + volume, Table 1): cr.
- Gelator effectiveness (Geff) ([4]; max. volume immobilized by 10 mg gelator, H2O/DMSO mixture, given as volume + volume, Table 1): 0.8+0.4 mL
- Gelator effectiveness (Geff) ([4]; max. volume immobilized by 10 mg gelator, THF, Table 1): 0.4 mL
- Gelator effectiveness (Geff) ([4]; max. volume immobilized by 10 mg gelator, decalin, Table 1): 0.2 mL
- Gelator effectiveness (Geff) ([4]; max. volume immobilized by 10 mg gelator, p-xylene, Table 1): 2.45 mL
- Gelator effectiveness (Geff) ([4]; max. volume immobilized by 10 mg gelator, tetralin, Table 1): 3.0 mL
- Gelator effectiveness (Geff) ([4]; max. volume immobilized by 10 mg gelator, toluene, Table 1): 1.95 mL
- Gelator effectiveness (Geff) ([4]; max. volume immobilized by 10 mg gelator, ±2-octanol, Table 1): 10.95 mL
- Gelator effectiveness (Geff) ([4]; maximal volume of solvent immobilized by 10 mg of gelator, solvent H2O, Table 1): 0.4 mL

Molecule: (S,R)-N,N'-Oxalyl-bis(leucyl-leucine methyl ester) [(S,R)-1b]
- Gelator effectiveness (Geff) [4, 9]: sol.
- Gelator effectiveness (Geff) [4, 10]: cr.
- Gelator effectiveness (Geff) ([4]; max. volume immobilized by 10 mg gelator, EtOH, Table 2): cr.
- Gelator effectiveness (Geff) [4, 11]: 11.5+11.7 mL
- Gelator effectiveness (Geff) [4, 12]: 9.7+10.0 mL
- Gelator effectiveness (Geff) [4, 13]: ins.
- Gelator effectiveness (Geff) [4, 14]: cr.
- Gelator effectiveness (Geff) [4, 15]: 0.8 mL
- Gelator effectiveness (Geff) [4, 16]: 0.5 mL
- Gelator effectiveness (Geff) [4, 17]: 0.2 mL
- Gelator effectiveness (Geff) [4, 18]: 0.15 mL
- Gelator effectiveness (Geff) ([4]; max. volume immobilized by 10 mg gelator, ±2-octanol, Table 2): cr.
- minimal gelation concentration (MGC) ([4]; toluene, experimentally determined): 0.116 mol dm^−3
- second saturation point of concentration induced 1H NMR shifts ([5]; toluene-d8): 0.12 mol dm^−3
- saturation point of concentration induced 1H NMR shifts (self-assembly equilibrium) ([5]; toluene-d8, concentration range 0.001–0.1 mol dm^−3, first or only saturation point): around 0.03 mol dm^−3

Second part, the molecule after the results:

- Gelation effectiveness (Geff) [4, 6]: 2.7+3.0 mL
- Gelation effectiveness (Geff) [4, 7]: 1.3+1.6 mL
- Gelation effectiveness (Geff) [4, 8]: 2.0 mL
- Gelation effectiveness (Geff) ([1]; CH2Cl2): ins.
- Gelation effectiveness (Geff) ([1]; CH3CN): ins.
- Gelation effectiveness (Geff) ([1]; EtOH): ins.
- Gelation effectiveness (Geff) ([1]; H2O): ins.
- Gelation effectiveness (Geff) ([1]; THF): ins.
- Gelation effectiveness (Geff) ([1]; p-xylene): ins.
- Gelation effectiveness (Geff) ([1]; toluene): ins.
- Gelation effectiveness (Geff) ([1]; ±2-octanol): ins.
Molecule: NC(=O)[C@H](Cc1ccccc1)NC(=O)[C@H](Cc1ccccc1)NC(=O)C(=O)N[C@@H](Cc1ccccc1)C(=O)N[C@@H](Cc1ccccc1)C(N)=O [5c, bis(PhePheNH2)]

- solubility in water [3]: insoluble
Molecule: O=C(N[C@@H](Cc1ccccc1)C(=O)N[C@@H](Cc1ccccc1)C(=O)O)C(=O)N[C@@H](Cc1ccccc1)C(=O)N[C@@H](Cc1ccccc1)C(=O)O [5a, (S,S)-N,N'-Oxalyl-bis(phenylalanyl-phenylalanine)]

From PMC2981816, “Oxalyl retro-peptide gelators. Synthesis, gelation properties and stereochemical effects” (Beilstein Journal of Organic Chemistry, 2010)
